Columns and labels:
[1] = In-vivo absorption test in rats, oral gavage, lamotrigine in blood serum by HPLC-UV; set-up: species or system Rats Sprague-Dawley; conditions: for Plasma concentration of lamotrigine in rats: rats (N = 5), oral gavage, 10 mg/kg as lamotrigine
Experimental: Rats historically have been used in safety evaluation and PK screening studies and are recommended by appropriate regulatory agencies.
Dose preparation; dose is prepared and suspended in 1 ml of 5% PEG 400 with 95% methylcellulose solution (weight percentage); methylcellulose solution is prepared by dissolving 0.5% methylcellulose in water (weight percentage).
The machine was operated by Total Chrome Workstation (Perkin Elmer Instruments LLC).

[2] = cited from earlier work
[3] = Sprague-Dawley, rat, plasma, po, 10 mg/kg

Compound | Plasma concentration of lamotrigine in rats ([1]; time 0 hrs) [µg/mL] | Plasma concentration of lamotrigine in rats ([1]; time 0.5 hrs) [µg/mL] | Plasma concentration of lamotrigine in rats ([1]; time 1 hrs) [µg/mL] | Plasma concentration of lamotrigine in rats ([1]; time 2 hrs) [µg/mL] | Plasma concentration of lamotrigine in rats ([1]; time 3 hrs) [µg/mL] | Plasma concentration of lamotrigine in rats ([1]; time 4 hrs) [µg/mL] | Plasma concentration of lamotrigine in rats ([1]; time 8 hrs) [µg/mL] | Plasma concentration of lamotrigine in rats ([1]; time 12 hrs) [µg/mL] | Plasma concentration of lamotrigine in rats ([1]; time 24 hrs) [µg/mL] | concentration at 0 h [1, 3] [µg/mL] | concentration at 0.5 h [1, 3] [µg/mL] | concentration at 1 h [1, 3] [µg/mL] | concentration at 2 h [1, 3] [µg/mL] | concentration at 3 h [1, 3] [µg/mL] | concentration at 4 h [1, 3] [µg/mL] | concentration at 8 h [1, 3] [µg/mL] | concentration at 12 h [1, 3] [µg/mL] | concentration at 24 h [1, 3] [µg/mL] | extent of absorption, solid versus solution ([2]; drug delivered as a solid or as a solution) | extent of absorption by site of delivery ([2]; drug delivered to any point in the gastrointestinal tract between the stomach and the ascending colon)
NC(=O)c1cccnc1.Nc1nnc(-c2cccc(Cl)c2Cl)c(N)n1 [Cocrystal 2] | 0 | 1.184 | 1.561 | 1.605 | 1.757 | 1.609 | 1.823 | 1.84 | 0.9718 | – | – | – | – | – | – | – | – | – | – | –
Nc1nnc(-c2cccc(Cl)c2Cl)c(N)n1 [Lamotrigine, 6-(2,3-dichlorophenyl)-1,2,4-triazine-3,5-diamine] | – | – | – | – | – | – | – | – | – | 0 | 1.59 | 2.24 | 2.37 | 2.42 | 2.48 | 2.68 | 2.86 | 2.13 | similar | consistent
